Test results reported in PubChem BioAssay AID330 (DTP/NCI, 2004).
Several values for one entry are separate records, joined by “and”; a condition that tells them apart may be missing. Equal values may be shown once. Toxic doses and inconclusive results are not listed.

Tested on: P388 leukemia ip, CD2F1 mice, survival T/C
Experiment: NCI In Vivo Anticancer Drug Screen. Data for tumor model P388 Leukemia (intraperitoneal) in CD2F1 (CDF1) mice
Conditions: endpoint: median survival time, higher = longer survival
Method in brief: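 Mice carrying the transplanted tumor received test compound or vehicle. Survival was recorded in each group, and the value is the treated-group measurement divided by that of the vehicle-treated control group.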

[1] = dose: 25.0 mg/kg/injection, schedule: Q01DX009 (ip), vehicle: saline with Tween-80
[2] = dose: 50.0 mg/kg/injection, schedule: Q01DX009 (ip), vehicle: saline with Tween-80
[3] = dose: 100.0 mg/kg/injection, schedule: Q01DX009 (ip), vehicle: saline with Tween-80
[4] = dose: 200.0 mg/kg/injection, schedule: Q01DX009 (ip), vehicle: saline with Tween-80
[5] = dose: 400.0 mg/kg/injection, schedule: Q01DX009 (ip), vehicle: saline with Tween-80
[6] = dose: 50.0 mg/kg/injection, schedule: Q01DX009 (ip), vehicle: saline
[7] = dose: 100.0 mg/kg/injection, schedule: Q01DX009 (ip), vehicle: saline
[8] = dose: 200.0 mg/kg/injection, schedule: Q01DX009 (ip), vehicle: saline
[9] = dose: 50.0 mg/kg/injection, schedule: Q01DX005 (ip), vehicle: saline with Tween-80
[10] = dose: 100.0 mg/kg/injection, schedule: Q01DX005 (ip), vehicle: saline with Tween-80
[11] = dose: 60.0 mg/kg/injection, schedule: Q01DX005 (ip), vehicle: saline with Tween-80
[12] = dose: 120.0 mg/kg/injection, schedule: Q01DX005 (ip), vehicle: saline with Tween-80

O=C1N2CCNc3ccccc3C(c3ccccc3)N1CC2 (configuration not stated)
T/C (dose: 6.25 mg/kg/injection, schedule: Q01DX005 (ip), vehicle: Klucel (hydroxypropylcellulose) (HPC)): 88 % of control
T/C (dose: 12.5 mg/kg/injection, schedule: Q01DX005 (ip), vehicle: Klucel (hydroxypropylcellulose) (HPC)): 93 % of control
T/C (dose: 25.0 mg/kg/injection, schedule: Q01DX005 (ip), vehicle: Klucel (hydroxypropylcellulose) (HPC)): 102 % of control

CC(C)CC(NC(=O)CCl)C(=O)O (configuration not stated)
T/C [1]: 108 % of control
T/C [2]: 108 % of control and 110 % of control
T/C [3]: 106 % of control and 113 % of control
T/C [4]: 96 % of control
T/C [5]: 108 % of control

Clc1ccc2c(NCCCC3CCCN4CCCCC34)ccnc2c1 (configuration not stated)
T/C (dose: 50.0 mg/kg/injection, schedule: Q01DX005 (ip), vehicle: Klucel (hydroxypropylcellulose) (HPC)): 99 % of control
T/C (dose: 100.0 mg/kg/injection, schedule: Q01DX005 (ip), vehicle: Klucel (hydroxypropylcellulose) (HPC)): 98 % of control

NCC(=O)O
T/C (dose: 3.75 mg/kg/injection, schedule: Q01DX005 (ip), vehicle: saline): 99 % of control
T/C (dose: 7.5 mg/kg/injection, schedule: Q01DX005 (ip), vehicle: saline): 100 % of control
T/C (dose: 15.0 mg/kg/injection, schedule: Q01DX005 (ip), vehicle: saline): 99 % of control and 94 % of control
T/C [6]: 94 % of control
T/C [7]: 105 % of control
T/C [8]: 110 % of control

CSC(=O)N(C)C(=O)Nc1cccc([N+](=O)[O-])c1
T/C (dose: 100.0 mg/kg/injection, schedule: Q04DX003 (ip), vehicle: Klucel (hydroxypropylcellulose) (HPC)): 100 % of control
T/C (dose: 200.0 mg/kg/injection, schedule: Q04DX003 (ip), vehicle: Klucel (hydroxypropylcellulose) (HPC)): 99 % of control
T/C (dose: 400.0 mg/kg/injection, schedule: Q04DX003 (ip), vehicle: Klucel (hydroxypropylcellulose) (HPC)): 90 % of control

O=c1c2cccc3cccc(c32)c2nc3ccccc3n12
T/C (dose: 4.12 mg/kg/injection, schedule: Q01DX009 (ip), vehicle: saline with Tween-80): 108 % of control
T/C (dose: 6.25 mg/kg/injection, schedule: Q01DX009 (ip), vehicle: saline with Tween-80): 100 % of control
T/C [1]: 95 % of control

CCN(CC)CCOC(=O)c1ccc(NC(=O)COc2ccc3ccccc3c2)cc1
T/C (dose: 25.0 mg/kg/injection, schedule: Q01DX009 (ip), vehicle: other): 88 % of control and 97 % of control
T/C (dose: 50.0 mg/kg/injection, schedule: Q01DX009 (ip), vehicle: other): 88 % of control and 102 % of control
T/C (dose: 100.0 mg/kg/injection, schedule: Q01DX009 (ip), vehicle: other): 86 % of control and 105 % of control
T/C (dose: 200.0 mg/kg/injection, schedule: Q01DX009 (ip), vehicle: other): 102 % of control and 97 % of control
T/C (dose: 400.0 mg/kg/injection, schedule: Q01DX009 (ip), vehicle: other): 100 % of control and 109 % of control

CCCCCCCCCCCCOC(=O)c1ccc(Cl)cc1
T/C [2]: 87 % of control
T/C [3]: 102 % of control
T/C [4]: 104 % of control

CCOC(=O)c1nc2ccccc2c(=O)[nH]1
T/C [3]: 102 % of control
T/C [4]: 108 % of control
T/C [5]: 100 % of control

O=NNc1nc2ccccc2[nH]1
T/C (dose: 3.12 mg/kg/injection, schedule: Q01DX009 (ip), vehicle: water): 99 % of control
T/C (dose: 6.25 mg/kg/injection, schedule: Q01DX009 (ip), vehicle: water): 103 % of control
T/C (dose: 12.5 mg/kg/injection, schedule: Q01DX009 (ip), vehicle: water): 109 % of control
T/C (dose: 25.0 mg/kg/injection, schedule: Q01DX009 (ip), vehicle: water): 103 % of control and 98 % of control
T/C (dose: 50.0 mg/kg/injection, schedule: Q01DX009 (ip), vehicle: water): 100 % of control and 97 % of control
T/C (dose: 100.0 mg/kg/injection, schedule: Q01DX009 (ip), vehicle: water): 97 % of control
T/C (dose: 200.0 mg/kg/injection, schedule: Q01DX009 (ip), vehicle: water): 91 % of control

C=C(C)C(=O)NC(C)C(=O)O (configuration not stated)
T/C [6]: 106 % of control
T/C [7]: 100 % of control
T/C [8]: 100 % of control

CC(NNC(=S)N1CC2CCC(CC2)C1)c1cc2ccccc2cn1 (configuration not stated)
T/C [9]: 114 % of control
T/C [10]: 112 % of control
T/C (dose: 200.0 mg/kg/injection, schedule: Q01DX005 (ip), vehicle: saline with Tween-80): 121 % of control

O=C(CCCl)OCCCl
T/C (dose: 50.0 mg/kg/injection, schedule: Q01DX009 (ip), vehicle: saline sonified): 95 % of control
T/C (dose: 100.0 mg/kg/injection, schedule: Q01DX009 (ip), vehicle: saline sonified): 100 % of control
T/C (dose: 200.0 mg/kg/injection, schedule: Q01DX009 (ip), vehicle: saline sonified): 90 % of control

Nc1nc(=S)c2ncn(C3OC(COC(=O)c4ccccc4)C(OC(=O)c4ccccc4)C3OC(=O)c3ccccc3)c2[nH]1 (configuration not stated)
T/C (dose: 4.4 mg/kg/injection, schedule: Q01DX009 (ip), vehicle: saline with Tween-80): 109 % of control
T/C (dose: 6.6 mg/kg/injection, schedule: Q01DX009 (ip), vehicle: saline with Tween-80): 113 % of control
T/C (dose: 10.0 mg/kg/injection, schedule: Q01DX009 (ip), vehicle: saline with Tween-80): 122 % of control
T/C (dose: 44.0 mg/kg/injection, schedule: Q04DX003 (ip), vehicle: saline with Tween-80): 108 % of control
T/C [2]: 170 % of control
T/C (dose: 66.0 mg/kg/injection, schedule: Q04DX003 (ip), vehicle: saline with Tween-80): 116 % of control
T/C [3]: 90 % of control

COc1ccc(/C(O)=C/c2nc3cccc([N+](=O)[O-])c3[nH]c2=O)cc1
T/C (dose: 15.0 mg/kg/injection, schedule: Q01DX005 (ip), vehicle: saline with Tween-80): 91 % of control
T/C (dose: 30.0 mg/kg/injection, schedule: Q01DX005 (ip), vehicle: saline with Tween-80): 91 % of control
T/C [11]: 86 % of control

O=C1CSC(c2ccc(O)cc2)N1c1nncs1 (configuration not stated)
T/C [11]: 107 % of control
T/C [12]: 104 % of control
T/C (dose: 240.0 mg/kg/injection, schedule: Q01DX005 (ip), vehicle: saline with Tween-80): 98 % of control

CC(C)=CC(=O)OC1C2C(C)=CC(O)C(O)C2(C)C2C3(O)OCC24C(CC(=O)OC14)C(C)C3O (configuration not stated)
T/C (dose: 0.31 mg/kg/injection, schedule: Q01DX005 (ip), vehicle: distilled water + Tween-80): 123 % of control
T/C (dose: 0.75 mg/kg/injection, schedule: Q01DX009 (ip), vehicle: saline with Tween-80): 160 % of control
T/C (dose: 1.0 mg/kg/injection, schedule: Q01DX005 (ip), vehicle: distilled water + Tween-80): 154 % of control
T/C (dose: 2.0 mg/kg/injection, schedule: Q01DX005 (ip), vehicle: distilled water + Tween-80): 154 % of control
T/C (dose: 4.0 mg/kg/injection, schedule: Q01DX005 (ip), vehicle: distilled water + Tween-80): 163 % of control
T/C (dose: 5.0 mg/kg/injection, schedule: Q01DX005 (ip), vehicle: distilled water + Tween-80): 153 % of control
T/C (dose: 6.0 mg/kg/injection, schedule: Q01DX009 (ip), vehicle: saline with Tween-80): 109 % of control

O=C(Nc1ccc(CCO)cc1)Nc1cc(C(F)(F)F)ccc1Cl
T/C [11]: 89 % of control
T/C [12]: 90 % of control

C(=N\SC(c1ccccc1)(c1ccccc1)c1ccccc1)/c1ccccc1
T/C [9]: 100 % of control
T/C [10]: 103 % of control

O=C(O)c1ccccc1-c1ccccc1[N+](=O)[O-]
T/C [6]: 88 % of control
T/C [7]: 97 % of control
T/C [8]: 97 % of control

N#CN(Cc1ccccc1)Cc1ccccc1.[Br][Sn]([c]1ccccc1)([c]1ccccc1)[c]1ccccc1
T/C (dose: 3.12 mg/kg/injection, schedule: Q01DX005 (ip), vehicle: saline with Tween-80): 100 % of control
T/C (dose: 6.25 mg/kg/injection, schedule: Q01DX005 (ip), vehicle: saline with Tween-80): 100 % of control
T/C (dose: 12.5 mg/kg/injection, schedule: Q01DX005 (ip), vehicle: saline with Tween-80): 91 % of control
T/C [9]: 114 % of control

O=C1NCCCC1(c1ccccc1)c1ccccc1
T/C [6]: 98 % of control
T/C [7]: 102 % of control
T/C [8]: 97 % of control

Cc1cc(=O)n2c3c(c4c(cc13)c(CBr)cc(=O)n4C)OC2
T/C (dose: 12.5 mg/kg/injection, schedule: Q01DX001 (ip), vehicle: Klucel (hydroxypropylcellulose) (HPC)): 96 % of control
T/C (dose: 25.0 mg/kg/injection, schedule: Q01DX001 (ip), vehicle: Klucel (hydroxypropylcellulose) (HPC)): 96 % of control
T/C (dose: 50.0 mg/kg/injection, schedule: Q01DX001 (ip), vehicle: Klucel (hydroxypropylcellulose) (HPC)): 112 % of control
T/C (dose: 100.0 mg/kg/injection, schedule: Q01DX001 (ip), vehicle: Klucel (hydroxypropylcellulose) (HPC)): 101 % of control
